Assay results as given in the supplement of paper PMC10627819.

What was measured:
S. aureus DSM 20231 [1] = assay: Bliss interaction score (quartile over a dose matrix) (fitness difference); higher = more antagonism (negative = synergy)
How it was run: (§1)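 Growth in each well was taken as OD595 at entry into stationary phase. Dividing by the plate's robust no-drug mean and capping at 1 gave fitness, and single-drug fitness was inferred from the combination data. The Bliss score, observed minus product-expected fitness, is summarised by quartiles over technical, biological and donor/recipient replicates.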

S. pneumoniae D39V [2] = assay: as above
How it was run: as §1

S. aureus Newman [3] = assay: as above
How it was run: as §1

B. subtilis 168 [4] = assay: as above
How it was run: as §1

S. aureus DSM 20231 [5] = assay: fitness (endpoint OD595 vs no drug) (fraction); higher = more growth
How it was run: (§2)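 Cultures at OD595 0.01 were dispensed into 384-well plates in TSB, LB Lennox or CY and incubated at 37 °C. Every 30 min for 14 h, OD595 was read and corrected by the first reading. Fitness is the optical density at entry into stationary phase relative to the robust mean of no-drug control wells, capped at 1.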

S. pneumoniae D39V [6] = assay: as above
How it was run: as §2

S. aureus Newman [7] = assay: as above
How it was run: as §2

B. subtilis 168 [8] = assay: as above
How it was run: as §2
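Wherever Bliss interaction score (quartile over a dose matrix) is given: first quartile when negative (synergy) and third quartile when positive (antagonism).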

CCC[C@@H]1C[C@@H](C(=O)N[C@@H]([C@H]2O[C@H](SC)[C@H](O)[C@@H](O)[C@H]2O)[C@H](C)Cl)N(C)C1 [Clindamycin] + CC1=C\[C@@H](O)CC(=O)Cc2nc(co2)C(=O)N2CCC=C2C(=O)O[C@H](C(C)C)[C@H](C)/C=C/C(=O)NC\C=C\1 [Virginiamycin M1]
Conditions	Bliss interaction score
B. subtilis 168 [4]	-0.0417
S. aureus DSM 20231 [1]	-0.0802
S. aureus Newman [3]	-0.0298
S. pneumoniae D39V [2]	-0.0639

one replicate
Conditions	fitness
B. subtilis 168 [8], first compound 0.0039 µg/mL, partner 0.0625 µg/mL	0.963
B. subtilis 168 [8], first compound 0.0039 µg/mL, partner 0.125 µg/mL	0.94
B. subtilis 168 [8], first compound 0.0039 µg/mL, partner 0.25 µg/mL	0.971
B. subtilis 168 [8], first compound 0.0078 µg/mL, partner 0.0625 µg/mL	0.459
B. subtilis 168 [8], first compound 0.0078 µg/mL, partner 0.125 µg/mL	0.881
B. subtilis 168 [8], first compound 0.0078 µg/mL, partner 0.25 µg/mL	0.862
B. subtilis 168 [8], first compound 0.0156 µg/mL, partner 0.0625 µg/mL	0.845
B. subtilis 168 [8], first compound 0.0156 µg/mL, partner 0.125 µg/mL	0.923
B. subtilis 168 [8], first compound 0.0156 µg/mL, partner 0.25 µg/mL	0.927
S. aureus DSM 20231 [5], first compound 0.0312 µg/mL, partner 0.5 µg/mL	0.661
S. aureus DSM 20231 [5], first compound 0.0312 µg/mL, partner 1 µg/mL	0.597
S. aureus DSM 20231 [5], first compound 0.0625 µg/mL, partner 0.5 µg/mL	0.316
S. aureus DSM 20231 [5], first compound 0.0625 µg/mL, partner 1 µg/mL	0.275
S. aureus DSM 20231 [5], first compound 0.125 µg/mL, partner 0.5 µg/mL	0.067
S. aureus DSM 20231 [5], first compound 0.125 µg/mL, partner 1 µg/mL	0.121
S. aureus Newman [7], first compound 0.0312 µg/mL, partner 0.5 µg/mL	0.865
S. aureus Newman [7], first compound 0.0312 µg/mL, partner 1 µg/mL	0.892
S. aureus Newman [7], first compound 0.0312 µg/mL, partner 2 µg/mL	0.769
S. aureus Newman [7], first compound 0.0625 µg/mL, partner 0.5 µg/mL	0.702
S. aureus Newman [7], first compound 0.0625 µg/mL, partner 1 µg/mL	0.728
S. aureus Newman [7], first compound 0.0625 µg/mL, partner 2 µg/mL	0.595
S. aureus Newman [7], first compound 0.125 µg/mL, partner 0.5 µg/mL	0.491
S. aureus Newman [7], first compound 0.125 µg/mL, partner 1 µg/mL	0.475
S. aureus Newman [7], first compound 0.125 µg/mL, partner 2 µg/mL	0.276
S. pneumoniae D39V [6], first compound 0.015 µg/mL, partner 0.15 µg/mL	0.978
S. pneumoniae D39V [6], first compound 0.015 µg/mL, partner 0.3 µg/mL	0.911
S. pneumoniae D39V [6], first compound 0.015 µg/mL, partner 0.5 µg/mL	0.877
S. pneumoniae D39V [6], first compound 0.015 µg/mL, partner 1 µg/mL	0.838
S. pneumoniae D39V [6], first compound 0.03 µg/mL, partner 0.15 µg/mL	0.838
S. pneumoniae D39V [6], first compound 0.03 µg/mL, partner 0.3 µg/mL	0.82
S. pneumoniae D39V [6], first compound 0.03 µg/mL, partner 0.5 µg/mL	0.79
S. pneumoniae D39V [6], first compound 0.03 µg/mL, partner 1 µg/mL	0.652
S. pneumoniae D39V [6], first compound 0.06 µg/mL, partner 0.15 µg/mL	0.736
S. pneumoniae D39V [6], first compound 0.06 µg/mL, partner 0.3 µg/mL	0.695
S. pneumoniae D39V [6], first compound 0.06 µg/mL, partner 0.5 µg/mL	0.703
S. pneumoniae D39V [6], first compound 0.06 µg/mL, partner 1 µg/mL	0.574

Conditions	fitness
B. subtilis 168 [8], first compound 0.0625 µg/mL, partner 0.0625 µg/mL	0.595
B. subtilis 168 [8], first compound 0.0625 µg/mL, partner 0.125 µg/mL	0.564
B. subtilis 168 [8], first compound 0.0625 µg/mL, partner 0.25 µg/mL	0.59
B. subtilis 168 [8], first compound 0.125 µg/mL, partner 0.0625 µg/mL	0.397
B. subtilis 168 [8], first compound 0.125 µg/mL, partner 0.125 µg/mL	0.364
B. subtilis 168 [8], first compound 0.125 µg/mL, partner 0.25 µg/mL	0.38
B. subtilis 168 [8], first compound 0.25 µg/mL, partner 0.0625 µg/mL	0.361
B. subtilis 168 [8], first compound 0.25 µg/mL, partner 0.125 µg/mL	0.357
B. subtilis 168 [8], first compound 0.25 µg/mL, partner 0.25 µg/mL	0.366
S. aureus DSM 20231 [5], first compound 0.0625 µg/mL, partner 0.0625 µg/mL	0.0867
S. aureus DSM 20231 [5], first compound 0.0625 µg/mL, partner 0.125 µg/mL	0.0913
S. aureus DSM 20231 [5], first compound 0.0625 µg/mL, partner 0.25 µg/mL	0.131
S. aureus DSM 20231 [5], first compound 0.125 µg/mL, partner 0.0625 µg/mL	0.0395
S. aureus DSM 20231 [5], first compound 0.125 µg/mL, partner 0.125 µg/mL	0.0407
S. aureus DSM 20231 [5], first compound 0.125 µg/mL, partner 0.25 µg/mL	0.0815
S. aureus Newman [7], first compound 0.0312 µg/mL, partner 0.0625 µg/mL	0.601
S. aureus Newman [7], first compound 0.0312 µg/mL, partner 0.125 µg/mL	0.613
S. aureus Newman [7], first compound 0.0312 µg/mL, partner 0.25 µg/mL	0.622
S. aureus Newman [7], first compound 0.0625 µg/mL, partner 0.0625 µg/mL	0.303
S. aureus Newman [7], first compound 0.0625 µg/mL, partner 0.125 µg/mL	0.321
S. aureus Newman [7], first compound 0.0625 µg/mL, partner 0.25 µg/mL	0.296
S. aureus Newman [7], first compound 0.125 µg/mL, partner 0.0625 µg/mL	0.0641
S. aureus Newman [7], first compound 0.125 µg/mL, partner 0.125 µg/mL	0.0861
S. aureus Newman [7], first compound 0.125 µg/mL, partner 0.25 µg/mL	0.0756
S. pneumoniae D39V [6], first compound 0.0125 µg/mL, partner 0.5 µg/mL	0.735
S. pneumoniae D39V [6], first compound 0.0125 µg/mL, partner 1 µg/mL	0.726
S. pneumoniae D39V [6], first compound 0.0125 µg/mL, partner 2 µg/mL	0.669
S. pneumoniae D39V [6], first compound 0.015 µg/mL, partner 2 µg/mL	0.806
S. pneumoniae D39V [6], first compound 0.025 µg/mL, partner 0.5 µg/mL	0.496
S. pneumoniae D39V [6], first compound 0.025 µg/mL, partner 1 µg/mL	0.471
S. pneumoniae D39V [6], first compound 0.025 µg/mL, partner 2 µg/mL	0.428
S. pneumoniae D39V [6], first compound 0.03 µg/mL, partner 2 µg/mL	0.699
S. pneumoniae D39V [6], first compound 0.05 µg/mL, partner 0.5 µg/mL	0.243
S. pneumoniae D39V [6], first compound 0.05 µg/mL, partner 1 µg/mL	0.217
S. pneumoniae D39V [6], first compound 0.05 µg/mL, partner 2 µg/mL	0.15
S. pneumoniae D39V [6], first compound 0.06 µg/mL, partner 2 µg/mL	0.624

CCC[C@@H]1C[C@@H](C(=O)N[C@@H]([C@H]2O[C@H](SC)[C@H](O)[C@@H](O)[C@H]2O)[C@H](C)Cl)N(C)C1 [Clindamycin] + CCN(CC)CCOC(=O)c1ccc(N)cc1 [Procaine]
Conditions	Bliss interaction score
B. subtilis 168 [4]	-0.067
S. aureus DSM 20231 [1]	-0.0363
S. aureus Newman [3]	0.0552
S. pneumoniae D39V [2]	-0.11

fitness
Conditions	partner 85.5 µg/mL	partner 171 µg/mL	partner 342 µg/mL
B. subtilis 168 [8], first compound 0.0625 µg/mL	0.504	0.483	0.506
B. subtilis 168 [8], first compound 0.125 µg/mL	0.363	0.362	0.367
B. subtilis 168 [8], first compound 0.25 µg/mL	0.344	0.335	0.339
S. aureus DSM 20231 [5], first compound 0.0625 µg/mL	0.196	–	–
S. aureus DSM 20231 [5], first compound 0.125 µg/mL	0.0583	0.0591	0.0589
S. aureus Newman [7], first compound 0.0312 µg/mL	0.706	–	–
S. pneumoniae D39V [6], first compound 0.0125 µg/mL	0.772	0.723	0.746
S. pneumoniae D39V [6], first compound 0.025 µg/mL	0.517	0.472	0.466
S. pneumoniae D39V [6], first compound 0.05 µg/mL	0.205	0.186	0.19

fitness, one replicate
Conditions	first compound 0.0039 µg/mL	first compound 0.0078 µg/mL	first compound 0.015 µg/mL	first compound 0.0156 µg/mL	first compound 0.03 µg/mL	first compound 0.06 µg/mL
B. subtilis 168 [8], partner 85.5 µg/mL	0.941	0.866	–	0.798	–	–
B. subtilis 168 [8], partner 171 µg/mL	0.931	0.838	–	0.814	–	–
B. subtilis 168 [8], partner 342 µg/mL	0.931	0.788	–	0.856	–	–
S. pneumoniae D39V [6], partner 85.5 µg/mL	–	–	0.916	–	0.713	0.349
S. pneumoniae D39V [6], partner 171 µg/mL	–	–	0.956	–	0.766	0.513
S. pneumoniae D39V [6], partner 342 µg/mL	–	–	0.806	–	0.716	0.373
